Results reported in patent US20170258871A1, “COMBINED USE OF A TRKA INHIBITOR AND AN EPHA2 INHIBITOR FOR USING IN THE TREATMENT OF SOLID CANCERS, AND METHOD FOR THE PROGNOSIS OF SURVIVAL OF A PATIENT WHO HAS A SOLID CANCER” (UNIVERSITE DES SCIENCES ET TECHNOLOGIES DE LILLE, priority 2014, published 2017).

Legend:
Akt = test: Western blot of Akt phosphorylation in MDA-MB-231 cells; format: cell-based
Experimental: FIG. 8: A study of the role of TrkA and EphA2 in the activation of proteins Akt and Src. Cells MDA-MB-231 were respectively treated with a TrkA inhibitor (K252a), an anti-EphA2 siRNA (siEphA2), an inhibitor of PI3-K (LY294002) and an inhibitor of Src (SKI-1).
A and D. Cells MDA-MB-231 HA-TrkA were treated with proNGF N.C. […] The phosphorylation of Akt and Src was determined by using phospho-specific antibodies. The equal charge was verified using Akt and Src antibodies.
C and F. The phosphorylation of Akt and Src was determined in the total lysates coming from cells MDA-MB-231 transfected with siEphA2 and treated for 30 minutes with proNGF N.C. (C) or NGF (F).
After treatment, the cells were lysed (lysis buffer: 40 mM HEPES pH 7.5; 1 mM EDTA pH 8.0; 120 mM NaCl; 10 mM NaPPi; 50 mM NaF; 1.5 mM Na3VO4; 1% Triton X 100; 0.1% SDS; 1 mM PMSF; 10% glycerol and 1/100 th of protease inhibitor cocktail (Sigma) (20 min; 4° C.)). The lysates were recovered and clarified by centrifugation (12,000 g; 10 min; 4° C.). The supernatant was then stored at −80° C. until use. The protein extracts were diluted to 2 μg·μL−1 in a Laemmli 1× buffer (7 min; 100° C.) then deposited and separated on SDS-PAGE (concentration gel 3.6% acrylamide and separation gel 7.5% to 10% acrylamide (thickness 1 mm); 180 V; 10 min then 200 V constant; until output of the migration front). The proteins separated by SDS-PAGE were transferred according to the semi-dry transfer method (buffer: 48 mM Tris base, 39 mM glycine, 1.64 mM SDS, 20% methanol (v/v); 14 V; 15 min per gel) or liquid (buffer: 25 mM Tris base and 192 mM glycine; 15% methanol (v/v); 100 V; 30 min) on nitrocellulose membranes (0.45 μm; Whatman; Germany) or PVDF (0.45 μm; Immobilon P; Millipore; France). The PVDF membrane was “activated” beforehand (methanol; 10 min; 20° C.). The membranes were then saturated (TBS-T; 5% BSA; 1 h; 20° C.) then incubated (16 h; 4° C.) with the chosen primary antibody. […] The membranes were placed in an image analyser (LAS 4000; Fuji) connected to a computer which allowed image generation (software Image Reader LAS 4000).
The antibody against EphA2 was sc-924 (Santa Cruz), the antibody against sortilin was BD Bioscience 612101, the antibody against TrkA was sc 14024 (Santa Cruz), the antibody against HA was MMS-101R (Covance), the antibody against Akt was Cell Signaling 4691, the antibody against phospho-Akt (Ser 473) was Cell Signaling 9271, the antibody against Src was Cell Signaling 2109 (WB), the antibody against PhosphoSrc (Tyr416) was Cell Signaling 2105 and the antibody against actin was Sigma A2066.
Proteins Akt and Src were both involved in the pro-invasive effect of proNGF. In order to identify the role of TrkA and EphA2 in the activation of proteins Akt and Src, cells MDA-MB-231 were treated respectively with a TrkA inhibitor (K252a), an anti-EphA2 siRNA (siEphA2) the sequence of which is presented in table 1, a PI3-K inhibitor (LY294002) (the activation of Akt in effect underlies that of PI3-K) and an inhibitor of Src (SKI-1).

SQ20B cells = test: In vitro invasion test (Boyden chamber), SQ20B; format: cell-based; details: NGF 16 nM or proNGF N.C. 0.5 nM, untreated cells = 100%
Experimental: (0.5 nM) for a period of 20 hours. The untreated cells represent the control and determine a base invasion of 100%.
The Boyden Chambers (Transwell®; BD Biosciences; France) were recovered from a biological matrix (type 1 collagen from rats diluted to 400 μg·mL-1 in EMEM-0.1% FCS medium; Millipore). The cells were then seeded with 100,000 cells/well on PET membranes (polyethylene terephtalate; dia.: 10.5 mm; porosity: 8 μm) of Boyden Chambers and held in an EMEM-0.1% FCS medium. […] (0.5 nM) in the lower part. After 20 hours of culture, they were washed twice with PBS 1× and fixed (ice cold methanol; 15 min; −20° C.). The non-invasive cells (upper face of the Transwell®) were eliminated by scraping. The number of cells was estimated after staining with Hoechst 33 258 (1 mM; 30 min; 20° C.) by counting the nuclei thereof using fluorescence microscopy on a total of 5 five randomly chosen fields (lens 10×; λ-excitation: 345 nm; λ-emission: 478 nm; Eclipse Ti) using the ImageJ software. Each experiment was performed in triplicate. Statistical analysis of the results was performed by analysis of variance ANOVA (Bonferroni post-hoc test).

Substance	effect on Akt phosphorylation induced by NGF (Akt; NGF 30 min, 10 nM K252a or siEphA2)	cell invasion under growth factor (SQ20B cells)	activation (phosphorylation) of Akt by the ligand (Akt; MDA-MB-231 HA-TrkA, 30 min)
siEphA2: siRNA against EphA2, GCAAGGAAGUGGUACUGCUGGACUU (SEQ ID NO: 1) (listed as RNA, chemistry not given here)	reduces only the base activation of phospho-Akt and phospho-Src but not the phosphorylation induced by the NGF	–	–
NGF: Nerve Growth Factor; recombinant human β NGF supplied by Scil Proteins	–	induced	increased
